Reference: patent US6479287B1, “Method for transformation of cotton and organogenic regeneration” (Mississippi State University, priority 2000, dated 2002)

Tested on: cotton shoot initiation (cultivar Deltapine 50 hypocotyl explants)
Test: Dose response study: effect of aminoglycosides on cotton shoot initiation from hypocotyl explants on medium GA
Format: in vivo
Conditions: incorporated in medium GA, results after 1 month, kanamycin tested at 0-200 mg/l, geneticin at 0-20 mg/l
Source text: Hypocotyl sections were placed horizontally on shoot initiation medium (GA). Explants were maintained for 6 weeks on this medium. Shoot primordia were visible on the acropetal ends of hypocotyl sections after 2 weeks. After 6 weeks, leaves were clearly visible. Shoot initiation has been observed in 7 commercial cultivars (Deltapine 50, Stoneville 474, Deltapine 5111, Tx 121, Suregrow 125, Fibermax 819, and Paymaster 1215) and 3 breeding lines, and the response ranged from 20-73% (percentage explants capable of initiating shoots per cultivar).
GA: semi-solid GMS plus an auxin like NAA (0.1-3.0 mg/l), a cytokinin like TDZ, or BA plus kinetin (0.1-2.5 mg/l) and 1-50 mg/l silver nitrate
The effect of the aminoglycosides kanamycin and geneticin on cotton shoot initiation were investigated. Kanamycin, at concentrations of 0.0, 50, 100, 150 and 200 mg/I, and geneticin at 0.0, 5.0, 10, 15 and 20 mg/l, were incorporated in medium GA. The experiment consisted of 3 replicate plates/treatment and 4 explants/replicate plates using the cultivar Deltapine 50. […] A geneticin concentration up to 20 mg/l was not inhibitory to shoot initiation.

Structure (SMILES): CN[C@@H]1[C@@H](O)[C@@H](O[C@@H]2[C@@H](O)[C@H](O[C@H]3O[C@H]([C@@H](C)O)[C@@H](O)[C@H](O)[C@H]3N)[C@@H](N)C[C@H]2N)OC[C@]1(C)O [geneticin]
- concentration inhibitory to shoot initiation: > 20 mg/L

Structure (SMILES): NC[C@H]1O[C@H](O[C@H]2[C@H](O)[C@@H](O[C@H]3O[C@H](CO)[C@@H](O)[C@H](N)[C@H]3O)[C@H](N)C[C@@H]2N)[C@H](O)[C@@H](O)[C@@H]1O [kanamycin]
- concentration inhibitory to shoot initiation: 50 mg/L
